“Also recorded” adds a separate entry of the source.
Assays:
[1] = tested on: EpiSC derived OPCs on microfibers; test: Oligodendrocyte formation and imaging on electrospun microfibers; format: cell-based, mouse; conditions: FIG. 4b
Protocol: A 12-well plate containing Mimetex aligned scaffold (microfiber plate, AMSBIO, AMS.TECL-006-1X, Electrospun poly-L-lactide Scaffold, […] fibre diameter cell crown inserts) was prepared as previously described. Briefly, fiber inserts were sterilized with 70% ethanol and washed with PBS before being coated with polyornithine and laminin. After laminin coating, 100,000 cells/mL of EpiSC derived OPCs (1.5 mL/well) were plated in differentiation medium. After 24 h the media was replaced with fresh media containing small molecule treatments. Every 48 h the media was replaced with fresh compound containing media for the first 4 days of 14 days culture. Microfibre inserts were fixed with 4% PFA, permeabilized with 0.1% Triton X-100, and blocked with 10% donkey serum (v/v) in PBS for 60 min. Then stained for MBP (Abcam, ab7349; 1:100) and DAPI staining (Sigma; 5 μg/ml). […] The mounted inserts were imaged on the Operetta High Content Imaging and Analysis system (PerkinElmer) and a set of 22 fields captured from each condition resulting in an average of 2000 cells being scored per well. The total microfiber area was calculated using bright filed imaging and a spot finding function (area larger than 2 p×2). The MBP+ pixel area within the defined microfiber area was then defined and the percentage of the total microfiber area calculated.

[2] = tested on: oligodendrocyte progenitor cells (OPCs), OPC-5; test: Differentiation of OPCs to MBP+ oligodendrocytes (in vitro phenotypic screening, high-content imaging); format: cell-based, mouse
Protocol: To rigorously assess effects of small molecule and genetic treatments on OPCs, all treatments were assayed in two batches of epiblast stem cell-derived OPCs, and key results were confirmed using mouse primary OPCs. OPCs were generated from two separate EpiSC lines, EpiSC5 (giving rise to OPC-5 OPCs) and 12901 (giving rise to OPC-1 OPCs). EpiSC-derived OPCs were obtained using in vitro differentiation protocols and culture conditions described previously. To ensure uniformity throughout all in vitro screening experiments, EpiSC-derived OPCs were sorted to purity by fluorescence activated cell sorting at passage five with conjugated CD 140a-APC (eBioscience, 17-1401; 1:80) and NG2-AF488 (Millipore, AB5320A4; 1:100) antibodies. Sorted batches of OPCs were expanded and frozen down in aliquots. OPCs were thawed into growth conditions for one passage before use in further assays. Cultures were regularly tested and shown to be mycoplasma free.
EpiSC-derived OPCs were grown and expanded in poly-ornithine (PO) and laminin-coated flasks with growth medium (DMEM/F12 supplemented with N2-MAX (R&D Systems), B-27 (ThermoFisher), GlutaMax (Gibco), FGF2 ([…], R&D systems, 233-FB-025) and PDGF-AA ([…], R&D systems, 233-AA-050) before harvesting for plating. The cells were seeded onto poly-D-lysine 96-well CellCarrier or CellCarrierUltra plates (PerkinElmer) coated with laminin (Sigma, L2020; 15 μg/ml) using multi-channel pipet. For the experiment, 800,000 cells/mL stock in differentiation medium (DMEM/F12 supplemented with N2-MAX and B-27) was prepared and stored on ice for 2 h. Then, 40,000 cells were seeded per well in differentiation medium and allowed to attach for 30 min before addition of drug. For dose-response testing of all molecules except sterols, a 1000× compound stock in dimethyl sulphoxide (DMSO) was added to assay plates with 0.1 μL solid pin multi-blot replicators (V & P Scientific; VP 409), resulting in a final primary screening concentration of 1×. Cells were incubated under standard conditions (37° C., 5% CO2) for 3 days and fixed with 4% paraformaldehyde (PFA) in phosphate buffered saline (PBS) for 20 min. Fixed plates were washed with PBS (200 μL per well) twice, permeabilized with 0.1% Triton X-100 and blocked with 10% donkey serum (v/v) in PBS for 40 min. Then, cells were labelled with MBP antibodies (Abcam, ab7349; 1:200) for 16 h at 4° C. followed by detection with Alexa Fluor conjugated secondary antibodies (1:500) for 45 min. Nuclei were visualized by DAPI staining (Sigma; 1 μg/ml). During washing steps, PBS was added using a multi-channel pipet and aspiration was performed using Biotek EL406 washer dispenser (Biotek) equipped with a 96-well aspiration manifold.
Plates were imaged on the Operetta High Content Imaging and Analysis system (PerkinElmer) and a set of 6 fields captured from each well resulting in an average of 1200 cells being scored per well. Analysis (PerkinElmer Harmony and Columbus software) began by identifying intact nuclei stained by DAPI; that is, those traced nuclei that were larger than 300 μm2 in surface area. Each traced nucleus region was then expanded by 50% and cross-referenced with the […] (MBP) stain to identify oligodendrocyte nuclei, and from this the percentage of oligodendrocytes was calculated.

SMILES: c1ccc(-c2ccc(CN3CCCCCCC3)cc2)cc1 [Compound 1]
- area of microfibers wrapped by MBP+ oligodendrocytes [1]: substantially increased
- activation at 0.03 µM ([2]; Mus musculus, Oligodendrocyte progenitor cell, 0.03 μM, 72 h treatment, read-out: % enhancement of MBP+ oligodendrocyte generation at 0.03 μM concentration): 20 to 30%
- activation at 0.1 µM ([2]; Mus musculus, Oligodendrocyte progenitor cell, 0.1 μM, 72 h treatment, read-out: % enhancement of MBP+ oligodendrocyte generation at 0.1 μM concentration): > 40%
- activation at 0.3 µM ([2]; Mus musculus, Oligodendrocyte progenitor cell, 0.3 μM, 72 h treatment, read-out: % enhancement of MBP+ oligodendrocyte generation at 0.3 μM concentration): > 40%
- activation at 1 µM ([2]; Mus musculus, Oligodendrocyte progenitor cell, 1 μM, 72 h treatment, read-out: % enhancement of MBP+ oligodendrocyte generation at 1 μM concentration): > 40%
- enhancement of oligodendrocyte formation (in words) ([2]; OPC-5, FIGS. 2a-2c): near maximal effects observed at 110 nM; also recorded: near maximal effects on oligodendrocyte formation at 110 nM

Reference: patent publication US12048678B2, “Compounds for treating myelin related disorders” (Case Western Reserve University, priority 2018, dated 2024)
